Laboratory results from ChEMBL document CHEMBL1201862, “PubChem BioAssay data set” (2004).
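Interpolation was linear, between the two tested concentrations surrounding the appropriate level; five concentrations were tested over 48 hours in 96-well plates. GI50 is the concentration that inhibits growth by half.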 The source made the active and inactive calls. Cut-off read from the data, not from the text of the source: active = GI50 up to about 1.1 µM and inactive = higher.

Assays:
Experiment in all cases: NCI anticancer screen, dose series, 48 h
MCF7 = system: MCF7
SK-OV-3 = system: SK-OV-3
UO-31 = system: UO-31
T47D = system: T47D
HCC 2998 = system: HCC 2998
U-251 = system: U-251
UACC-257 = system: UACC-257
OVCAR-8 = system: OVCAR-8
RPMI-8226 = system: RPMI-8226
MDA-MB-231 = system: MDA-MB-231
SNB-75 = system: SNB-75
IGROV-1 = system: IGROV-1
EKVX = system: EKVX
Malme-3M = system: Malme-3M
SF-295 = system: SF-295
DU-145 = system: DU-145
UACC-62 = system: UACC-62
OVCAR-3 = system: OVCAR-3
LOX IMVI = system: LOX IMVI
SR = system: SR

Row | Compound | GI50 (MCF7) | GI50 (SK-OV-3) | GI50 (UO-31) | GI50 (T47D) | GI50 (HCC 2998) | GI50 (U-251) | GI50 (UACC-257) | GI50 (OVCAR-8) | GI50 (RPMI-8226) | GI50 (MDA-MB-231) | GI50 (SNB-75) | GI50 (IGROV-1) | GI50 (EKVX) | GI50 (Malme-3M) | GI50 (SF-295) | GI50 (DU-145) | GI50 (UACC-62) | GI50 (OVCAR-3) | GI50 (LOX IMVI) | GI50 (SR)
1 | Cc1ccc2c(c1C)CC1(Cc3c(C)ccc(C)c3C1=O)C2=O (centres undefined) | > 100 µM (inactive) | > 100 µM (inactive) | > 100 µM (inactive) | > 100 µM (inactive) | > 100 µM (inactive) | > 100 µM (inactive) | > 100 µM (inactive) | > 100 µM (inactive) | > 100 µM (inactive) | > 100 µM (inactive) | > 100 µM (inactive) | > 100 µM (inactive) | > 100 µM (inactive) | > 100 µM (inactive) | > 100 µM (inactive) | > 100 µM (inactive) | > 100 µM (inactive) | – | – | –
2 | CCOC(=O)c1c(C)c2c(n1C)CCc1c[nH]nc1-2 | > 100 µM (inactive) | > 100 µM (inactive) | > 100 µM (inactive) | – | > 100 µM (inactive) | > 100 µM (inactive) | > 100 µM (inactive) | > 100 µM (inactive) | > 100 µM (inactive) | – | > 100 µM (inactive) | > 100 µM (inactive) | 18 µM (inactive) | > 100 µM (inactive) | > 100 µM (inactive) | – | > 100 µM (inactive) | > 100 µM (inactive) | > 100 µM (inactive) | –
3 | Cc1cc(-c2cccc3ccccc23)c(C#N)c(=S)n1C1OC(CO)C(O)C(O)C1O (centres undefined) | > 100 µM (inactive) | > 100 µM (inactive) | – | 52.7 µM (inactive) | > 100 µM (inactive) | – | > 100 µM (inactive) | > 100 µM (inactive) | – | > 100 µM (inactive) | 0.0379 µM (active) | > 100 µM (inactive) | > 100 µM (inactive) | > 100 µM (inactive) | > 100 µM (inactive) | – | > 100 µM (inactive) | > 100 µM (inactive) | > 100 µM (inactive) | 98.4 µM (inactive)
4 | NCCNCCNc1ccc(NCCNCCN)c2c1C(=O)c1c(O)ccc(O)c1C2=O | 59.7 µM (inactive) | > 100 µM (inactive) | > 100 µM (inactive) | – | > 100 µM (inactive) | > 100 µM (inactive) | > 100 µM (inactive) | > 100 µM (inactive) | > 100 µM (inactive) | > 100 µM (inactive) | > 100 µM (inactive) | > 100 µM (inactive) | > 100 µM (inactive) | > 100 µM (inactive) | 99.3 µM (inactive) | > 100 µM (inactive) | > 100 µM (inactive) | > 100 µM (inactive) | > 100 µM (inactive) | 2.21 µM (inactive)
5 | C[C@]12CC[C@H](O)C[C@@H]1CC[C@@H]1[C@@H]2CC[C@]2(C)[C@@H](C3=CC(=O)OC3)CC[C@]12O | – | 3.21 µM (inactive) | 2.37 µM (inactive) | 3.77 µM (inactive) | 3.05 µM (inactive) | 3.73 µM (inactive) | 4.03 µM (inactive) | 3.08 µM (inactive) | 4.21 µM (inactive) | 8.89 µM (inactive) | 3.85 µM (inactive) | 3.26 µM (inactive) | 2.38 µM (inactive) | 2.16 µM (inactive) | 2.73 µM (inactive) | 1.49 µM (inactive) | 3.55 µM (inactive) | 3.12 µM (inactive) | 2.59 µM (inactive) | > 100 µM (inactive)
6 | CC1(C)N=C(N)N=C(N)N1c1cccc(OCc2cccc(N)c2)c1 | 39.9 µM (inactive) | > 100 µM (inactive) | > 100 µM (inactive) | > 100 µM (inactive) | – | 14.7 µM (inactive) | 6.14 µM (inactive) | > 83 µM (inactive) | 56.1 µM (inactive) | > 71.4 µM (inactive) | > 100 µM (inactive) | 3.31 µM (inactive) | > 88.3 µM (inactive) | > 71.9 µM (inactive) | > 79.6 µM (inactive) | > 86.3 µM (inactive) | 6.11 µM (inactive) | 39.6 µM (inactive) | 9.46 µM (inactive) | –
7 | CCN(CC)C(=S)SS(=O)(=O)c1ccc(C)cc1 | – | > 100 µM (inactive) | 20.7 µM (inactive) | 59.7 µM (inactive) | 36.9 µM (inactive) | 23.3 µM (inactive) | 19.2 µM (inactive) | 19.5 µM (inactive) | – | 35.7 µM (inactive) | – | – | > 100 µM (inactive) | 20.4 µM (inactive) | 52.7 µM (inactive) | 42.6 µM (inactive) | 16.2 µM (inactive) | 39.6 µM (inactive) | 17.4 µM (inactive) | –
8 | NC1CNC(=O)c2cscc21 (centres undefined) | > 100 µM (inactive) | – | > 100 µM (inactive) | – | > 100 µM (inactive) | > 100 µM (inactive) | > 100 µM (inactive) | – | > 100 µM (inactive) | – | – | > 100 µM (inactive) | > 100 µM (inactive) | > 100 µM (inactive) | > 100 µM (inactive) | > 100 µM (inactive) | > 100 µM (inactive) | > 100 µM (inactive) | > 100 µM (inactive) | > 100 µM (inactive)
9 | Cn1cc(C2NC(=O)c3ccccc3N2)c2ccccc21 (centres undefined) | 0.124 µM (active) | 0.35 µM (active) | > 100 µM (inactive) | – | 1.19 µM (inactive) | 0.889 µM (active) | 5.6 µM (inactive) | – | 0.249 µM (active) | 2.14 µM (inactive) | 0.873 µM (active) | 1.51 µM (inactive) | 0.998 µM (active) | 0.316 µM (active) | 0.305 µM (active) | 0.887 µM (active) | 0.373 µM (active) | 0.489 µM (active) | 0.877 µM (active) | –
10 | Nc1ncnc2c(C3OC(CO)C(O)C3O)scc12 (centres undefined) | – | < 0.001 µM (active) | 0.57 µM (active) | – | 0.00504 µM (active) | 3.78 µM (inactive) | 0.0792 µM (active) | 0.00179 µM (active) | 0.00222 µM (active) | – | 0.459 µM (active) | 0.513 µM (active) | 1.04 µM (active) | 2.54 µM (inactive) | 0.129 µM (active) | – | 0.00321 µM (active) | 0.00241 µM (active) | 0.0566 µM (active) | 0.319 µM (active)
11 | CCOc1ccccc1/C=C1\NC(=O)N(/C=C2\C(=O)Oc3ccccc3C2=O)C1=O | 46.2 µM (inactive) | 59.7 µM (inactive) | 23.1 µM (inactive) | – | 74 µM (inactive) | 47 µM (inactive) | 40.1 µM (inactive) | 80.9 µM (inactive) | – | 44.6 µM (inactive) | 69.2 µM (inactive) | 35.7 µM (inactive) | 51.6 µM (inactive) | – | 44.5 µM (inactive) | 44.5 µM (inactive) | 32.8 µM (inactive) | 30.8 µM (inactive) | 63.7 µM (inactive) | –
12 | O=C1C=C2SC3C[C@@]24CC1[N+]1=c2c4c(c(O)c4c2=C(C=N4)CC1)N3 | 2.08 µM (inactive) | 2.96 µM (inactive) | 16.6 µM (inactive) | – | 2.74 µM (inactive) | 1.9 µM (inactive) | 1.7 µM (inactive) | 2.03 µM (inactive) | 2.08 µM (inactive) | – | 4.61 µM (inactive) | 2.44 µM (inactive) | 2.27 µM (inactive) | 1.85 µM (inactive) | 3.43 µM (inactive) | – | 1.78 µM (inactive) | 0.938 µM (active) | 2.51 µM (inactive) | –
13 | O=C(O)c1ccc(NC(NC(=O)C(C(F)(F)F)C(F)(F)F)(C(F)(F)F)C(F)(F)F)cc1 | – | > 100 µM (inactive) | > 100 µM (inactive) | > 100 µM (inactive) | > 100 µM (inactive) | > 100 µM (inactive) | > 100 µM (inactive) | > 100 µM (inactive) | > 100 µM (inactive) | – | > 100 µM (inactive) | > 100 µM (inactive) | > 100 µM (inactive) | – | – | – | – | – | > 100 µM (inactive) | > 100 µM (inactive)
14 | CC(C)(c1ccc(OC#N)cc1)c1ccc(OC#N)cc1 | – | > 100 µM (inactive) | > 100 µM (inactive) | – | > 100 µM (inactive) | > 68.5 µM (inactive) | > 100 µM (inactive) | > 100 µM (inactive) | > 52.6 µM (inactive) | – | > 52.5 µM (inactive) | > 100 µM (inactive) | > 100 µM (inactive) | > 100 µM (inactive) | > 100 µM (inactive) | – | > 100 µM (inactive) | > 100 µM (inactive) | > 48.4 µM (inactive) | 27 µM (inactive)
15 | Oc1cc(O)cc(/C=C/c2ccc(O)c(O)c2)c1 [PICEATANNOL] | 20.1 µM (inactive) | 18.9 µM (inactive) | 10.4 µM (inactive) | – | 16.7 µM (inactive) | 15.4 µM (inactive) | > 76.6 µM (inactive) | 24.2 µM (inactive) | 10.3 µM (inactive) | – | 14.1 µM (inactive) | 9.64 µM (inactive) | 28.2 µM (inactive) | 26.1 µM (inactive) | 16.5 µM (inactive) | – | 3.53 µM (inactive) | 25.8 µM (inactive) | 11.9 µM (inactive) | –
16 | COC(=O)c1c2c(cc3c1CC1(Cc4cc5c(cc4C1)CCCC5)C3)CCCC2 | > 100 µM (inactive) | > 100 µM (inactive) | > 100 µM (inactive) | > 100 µM (inactive) | > 100 µM (inactive) | > 100 µM (inactive) | > 100 µM (inactive) | > 100 µM (inactive) | > 100 µM (inactive) | > 100 µM (inactive) | 0.155 µM (active) | > 100 µM (inactive) | > 100 µM (inactive) | > 100 µM (inactive) | > 100 µM (inactive) | – | > 100 µM (inactive) | > 100 µM (inactive) | > 100 µM (inactive) | 27.5 µM (inactive)
